The text below walks through data of patent US5352451A, “Biological insect control agents and methods of use” (priority 1991, dated 1994).

The target of the assay is T1, EGT (Autographa californica nuclear polyhedrosis virus, UniProt P18569).
T1 construct: extracellular medium from wt-AcMNPV infected cells containing significant egt activity; endogenous in cells; host or cells: Spodoptera frugiperda IPLB-SF-21 (SF) cells infected with wild-type AcMNPV; extracellular medium used unpurified; EGT made from the virus's own gene
T1 sequence (P18569 19-506): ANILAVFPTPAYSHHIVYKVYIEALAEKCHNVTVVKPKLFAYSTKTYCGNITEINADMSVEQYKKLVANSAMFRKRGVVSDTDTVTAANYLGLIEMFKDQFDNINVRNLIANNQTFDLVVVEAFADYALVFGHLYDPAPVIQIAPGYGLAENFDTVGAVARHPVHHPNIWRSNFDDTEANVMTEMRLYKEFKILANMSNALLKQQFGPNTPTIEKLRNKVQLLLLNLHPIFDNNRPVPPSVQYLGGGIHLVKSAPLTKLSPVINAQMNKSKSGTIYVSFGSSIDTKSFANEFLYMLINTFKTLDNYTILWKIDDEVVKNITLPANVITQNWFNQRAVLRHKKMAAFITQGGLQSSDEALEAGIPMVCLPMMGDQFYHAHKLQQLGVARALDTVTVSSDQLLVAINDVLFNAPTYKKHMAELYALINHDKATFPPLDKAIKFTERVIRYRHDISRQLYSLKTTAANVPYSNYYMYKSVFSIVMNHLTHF
The assay is classed as biochemical. As to conditions: substrate 1 mM; extracellular medium from wt-AcMNPV infected cells; 0.05 μCi UDP-[U-14C]glucose. As to the method:
Experiments are then performed to more thoroughly investigate the substrate specificity of EGT. In these experiments various substrates (1 mM) are incubated in the presence of extracellular medium from wt-AcMNPV infected cells containing significant egt activity. As controls to ensure that any conjugation observed is due to EGT, each substrate is also incubated with media from uninfected and vEGTZ-infected cells, which cannot produce EGT. 0.05 μCi UDP-[U-^14 C]glucose are added to each reaction. Any compounds which function as substrates for EGT will be conjugated with glucose; they can be detected because the glucose is radioactively labeled.
Substrates are incubated in the presence of medium derived from
appropriately infected cells and 0.05 μCi UDP[U-^14 C]glucose.
Amounts of glucose transferred are calculated after scintillation countin
of the appropriate regions of the chromatography plates.
The only substrates identified are ecdysone, 20-hydroxyecdysone and makisterone A, all of which are ecdysteriods. No conjugation is observed using medium from mock- or vEGTZ-infected cells, confirming that the activity observed is due to expression of egt.
As to `CC(C)(O)CCC(O)C(C)(O)C1CCC2(O)C3=CC(=O)C4CC(O)C(O)CC4(C)C3CCC12C` (stereo not drawn) [20-Hydroxyecdysone], the “wild type (pmol Glucose transferred)” value is recorded as 87.8 pmol.
With `C[C@H]([C@H](O)CCC(C)(C)O)[C@H]1CC[C@@]2(O)C3=CC(=O)[C@@H]4C[C@@H](O)[C@@H](O)C[C@]4(C)[C@H]3CC[C@]12C` [Ecdysone] the figure was 155.7 pmol; with `CC(CC(O)C(C)(O)C1CCC2(O)C3=CC(=O)C4CC(O)C(O)CC4(C)C3CCC12C)C(C)(C)O` (stereo not drawn) [Makisterone A], 89.6 pmol.
